Data on ten molecules can be found in patent publication US9220269B2, “Use of 6-substituted 9-halogenalkyl purines for regulation of growth and development of whole plants, plant cells and plant organs; novel 6-substituted 9-halogenalkyl purines” (UNIVERZITA PALACKEHO V OLOMOUCI, priority 2010, dated 2015).

Test [1] relates to cytokinin-dependent tobacco callus Nicotiana tabacum L. cv. Wisconsin 38. The experiment in a line: cytokinin-dependent tobacco callus bioassay (plant cell division). Type of test: cell-based. The following applies: for activity (%) [10^−5 mol. l^−1 iP = 100%] / activity (%) [10^−6 mol. l^−1 Kin = 100%]: at the concentration with highest activity; for activity (%) [10^−5 mol. l^−1 iP = 100%]: relative to 10^−5 M iP; for effect on callus growth (cell proliferation) in high concentrations: concentrations exceeding 10 μM, up to 100 μM, FIG. 1; for activity (%) [10^−6 mol. l^−1 Kin = 100%]: relative to 10^−6 M Kin; for concentration with highest activity: growth of tobacco callus, fresh weight after four weeks. On the procedure:
Stimulatory effect of newly prepared derivatives was tested using cytokinin-dependent tobacco callus. The cytokinin-dependent tobacco callus Nicotiana tabacum L. cv. Wisconsin 38 was maintained at 25° C. in darkness on modified MS medium, containing per 1 liter: 4 μmol of nicotinic acid, 2.4 μmol of pyridoxine hydrochloroide, 1.2 μmol of thiamine, 26.6 μmol of glycine, 1.37 μmol of glutamine, 1.8 μmol of myo-inositol, 30 g of sucrose, 8 g of agar, 5.37 μmol of NAA and 0.5 μmol of the compound tested. Subcultivation was carried out every three weeks. Fourteen days before the bioassay, the callus tissue was transferred to the media without the compound tested. The biological activity was determined from the increase of the fresh callus weight after four weeks of cultivation. Six replicates were prepared for each concentration of the compound tested and the entire test was repeated twice. […] The compounds to be tested were dissolved in dimethylsulfoxide (DMSO) and the solution brought up to 10^−3 M with distilled water. […] From the obtained data, the concentration with the highest activity was selected for each compound tested. Relative activity of the compound at this concentration was calculated (Table 2). The activity obtained for 10^−6 M of the N9-unsubstituted parent cytokinins Kin and 10^−5 M iP, respectively, was postulated as 100% biological activity. […] For comparison, compounds bearing halogenbutyl substituent in position 9 were prepared and tested.
Cytokinins are known to have stimulatory effects on cell proliferation in their optimal concentrations, however typically in the concentrations exceeding 10 μM their effect on cell division turns into inhibitory (Holub et al., Plant Growth Regul. 26, 109-115, 1998). Therefore the effect of the high concentrations of the newly prepared derivatives was tested using cytokinin-dependent tobacco callus described in Example 6. The novel compounds 1, 2 and 4 were tested in high concentrations (1-100 μM) and the activities were compared with activities of their N9-unsubstituted parent cytokinins.

For test [2], the system named is Amaranthus caudatus var. atropurpurea explants (cotyledons and hypocotyl). Description: Amaranthus bioassay (betacyanin formation). The following applies: for activity (%) [10^−5 mol. l^−1 iP = 100%]: at the concentration with highest activity; for concentration with highest activity: betacyanin formation, 48 h in darkness. On the procedure:
The standard Amaranthus bioassay with several modifications was used to study cytokinin activity of the novel compounds. The seeds of Amaranthus caudatus var. atropurpurea were surface-sterilised in 10% (w/v) N-chlorobenzenesulfonamide for 10 min and washed 5 times with deionized water. They were placed in 14 cm Petri dishes containing paper tissues saturated with deionized water. After 72 h of cultivation at 25° C. in darkness, the roots of the seedlings were cut off. The explants, consisting of two cotyledons and hypocotyl, were placed in 5 cm Petri dishes onto two layers of filter paper soaked with 1 ml of the incubation medium containing 10 μmol of Na2HPO4—KH2PO4, pH 6.8, 5 μmol of tyrosine and the cytokinin to be tested. There were 20 explants per dish. The procedure was carried out under a green safe light in a darkroom. After 48 h of incubation at 25° C. in darkness, betacyanin was extracted by freezing the explants in 4 ml […] acetic acid. The concentration of betacyanin was determined from the absorbances at 537 nm and 620 nm as follows: ΔA=A537 nm−A620 nm. The values ΔA were plotted against the concentration tested, are means of five replicates and the entire test was repeated twice. […] The compounds to be tested were dissolved in dimethylsulfoxide (DMSO) and the solution brought up to 10^−3 M with distilled water. […] The activity obtained for 10^−5 M iP was postulated as 100%.

Test [3] deals with detached leaf segments of Triticum aestivum cv. Hereward. The experiment in a line: senescence bioassay on detached wheat leaf segments in dark conditions (chlorophyll retention). The following applies: for concentration with highest activity: 96 h, 25° C., chlorophyll A665; for activity (%) [10^−4 mol. l^−1 Kin = 100%]: at the concentration with highest activity. On the procedure:
(§1) Seeds of winter wheat, Triticum aestivum cv. Hereward, were washed under running water for 24 hours and then sown on vermiculite soaked with Knop's solution. They were placed in the growth chamber at 25° C. with a 16/8 h light period at 50 μmol·m^−2·s^−1. After 7 days, the first leaf was fully developed and the second leaf had started to grow. A tip section of the first leaf, approximately 35 mm long, was removed from 5 seedlings and trimmed slightly to a combined weight of 100 mg. The basal ends of the five leaf tips were placed in the wells of a microtiter polystyrene plate containing 150 μL of the tested derivative solution each. The entire plate was inserted into a plastic box lined with paper tissues soaked in distilled water to prevent leaf sections from drying out. After 96 h incubation in the dark at 25° C., the leaves were removed and chlorophyll extracted by heating at 80° C. for 10 min in 5 mL of 80% ethanol (v/v). The sample volume was then restored to 5 mL by the addition of 80% ethanol (v/v). The absorbance of the extract was recorded at 665 nm. In addition, chlorophyll extracts from fresh leaves and leaf tips incubated in deionised water were measured. The results are means of five replicates and the entire test was repeated twice. […] The compounds to be tested were dissolved in dimethylsulfoxide (DMSO) and the solution brought up to 10^−3M with distilled water. […] The activity obtained for 10^−4 M Kin was postulated as 100%.

The test system is the same in test [4]. The experiment in a line: senescence bioassay on detached wheat leaf segments in light conditions (chlorophyll retention). The following applies: for concentration with highest activity: constant light 100 μmol·m^−2·s^−1, 22° C.; for activity (%) [10^−4 mol. l^−1 Kin = 100%]: light, at the concentration with highest activity. On the procedure: as §1
The ability of the novel compounds to retard chlorophyll degradation in detached wheat leaves was tested also in the light conditions. The experiment was performed as described in Example 7 with modifications as follows—the incubation of the leaves with the compounds was done in the constant light (100 μmol·m^−2·s^−1) at 22° C.

For the next test, the system named is VP14 gene. Description: expression of VP14 stress gene in intact maize plants (RT-PCR). Type of test: in vivo, Zea mays. The following applies: 5 μM. As to the method:
Abscisic acid has a direct effect on up-regulation of genes involved in stress responses (Tan et al., 1997, Proc Natl Acad Sci USA, 94, 12235-40). 5-days-old maize seedlings were carefully transferred from substrate to nutrient solution supplemented with tested compound in 5 μM concentration and were cultivated for another 3 days. Transcript copy number of VP14 gene was determined in roots and leaves of treated plants independently by method of reverse transcription polymerase chain reaction.

Test [5] deals with Zea mays cv. CELLUX seedlings. The experiment in a line: root growth and development of maize seedlings in hydroponics. Format: in vivo. The following applies: 5 μM in nutrient solution; FIG. 3. On the procedure: To investigate in vivo effect of the new derivatives on the root growth and development, maize seeds (Zea mays cv. CELLUX, Morseva, Czech Republic) were imbibed in tap water and germinated in dark on a wetted filter paper. After 2 days, the germinated seedlings were transferred to aerated hydroponic tanks filled with Hoagland's nutrient solution (fifteens per one liter of Hoagland solution). The plants were grown in a chamber with 16 hrs light (250 μm-2 s-1) at 27° C. and 8 hrs dark period at 20° C. The nutrient solution was supplemented with 5 μM and 10 μM concentration of 6-furfurylamino-9-(2-chloroethyl)purine or 5 μM cytokinin kinetin (Kin). All solutions used for cytokinin treatment including negative control contained DMSO in final concentration of 0.01%.

Setting [6] is: 3 days, related to untreated control = 1.

As for `CC(C)=CCNc1ncnc2nc[nH]c12` [6-(3-methylbut-2-en-1-yl)aminopurine, reference compound], in test [1], the “activity (%) [10^−5 mol. l^−1 iP = 100%]” value was 100% and the “effect on callus growth (cell proliferation) in high concentrations” value (“effect on callus growth” for short) is listed as “inhibited strongly the callus growth”. Also, in test [2], the “activity (%) [10^−5 mol. l^−1 iP = 100%]” value is 100% and the “concentration with highest activity” value was 10^−5 mol. l^−1.

For the molecule `BrCCCCn1cnc2c(NCc3ccco3)ncnc21` [6-furfurylamino-9-(4-bromobutyl)purine, reference compound], the “activity (%) [10^−6 mol. l^−1 Kin = 100%]” value in test [1] is given as 45 (±8) %. For the same molecule, the “concentration with highest activity” value in test [3] and in test [4] was 10^−4 mol. l^−1 throughout. For the same molecule, the results for the “activity (%) [10^−4 mol. l^−1 Kin = 100%]” value in test [3] and in test [4] were 1.2 (±2) % and 60 (±16) %, respectively.

Consider `ClCCCCn1cnc2c(NCc3ccco3)ncnc21` [6-furfurylamino-9-(4-chlorobutyl)purine, reference compound], for which the “activity (%) [10^−6 mol. l^−1 Kin = 100%]” value in test [1] is 62 (±7) %. In addition, in test [3], the “concentration with highest activity” value is 10^−4 mol. l^−1 and the “activity (%) [10^−4 mol. l^−1 Kin = 100%]” value was 72 (±13) %. In test [4], the “concentration with highest activity” value is reported as 10^−4 mol. l^−1 and the “activity (%) [10^−4 mol. l^−1 Kin = 100%]” value is reported as 119 (±6) %.

For `c1coc(CNc2ncnc3nc[nH]c23)c1` [6-furfurylaminopurine (Kin), 6-furfurylaminopurine, reference compound], in test [1], the “activity (%) [10^−6 mol. l^−1 Kin = 100%]” value was determined as 100% and the “effect on callus growth” value is on record as “inhibited strongly the callus growth”. Besides, in test [3], the “concentration with highest activity” value is 10^−4 mol. l^−1 and the “activity (%) [10^−4 mol. l^−1 Kin = 100%]” value was determined as 100%. Moreover, in the test with VP14 gene (setting [6]), the “Relative amount of transcripts, leaf” value is given as 16.3 (±4.0) and the “Relative amount of transcripts, root” value is 3.4 (±0.8). Besides, the “effect on VP14 expression / stress response” value with VP14 gene (in words) was “significantly increases VP14 expression in both root and leaves of maize”. In test [4], the “concentration with highest activity” value is given as 10^−4 mol. l^−1 and the “activity (%) [10^−4 mol. l^−1 Kin = 100%]” value came out at 100%. Also, the “root and shoot phenotype of maize plants” value in test [5] is “dramatic thickening and shortening of primary root with no lateral root formation”.

With `BrCCn1cnc2c(NCc3ccco3)ncnc21` [Compound 2, 6-furfurylamino-9-(2-bromoethyl)purine], the “activity (%) [10^−6 mol. l^−1 Kin = 100%]” value in test [1] was 110 (±3) %. Further, in test [3], the “concentration with highest activity” value is 10^−4 mol. l^−1 and the “activity (%) [10^−4 mol. l^−1 Kin = 100%]” value was 102 (±3) %. Moreover, in test [4], the “concentration with highest activity” value is 10^−4 mol. l^−1 and the “activity (%) [10^−4 mol. l^−1 Kin = 100%]” value is reported as 121 (±8) %.

As to `CC(C)=CCNc1ncnc2c1ncn2CCBr` [Compound 3, 6-[(3-methylbut-2-en-1-yl)amino]-9-(2-bromoethyl)purine], the “activity (%) [10^−5 mol. l^−1 iP = 100%]” value in test [1] is 103 (±4) %. Also, in test [2], the “activity (%) [10^−5 mol. l^−1 iP = 100%]” value is given as 116 (±9) % and the “concentration with highest activity” value is listed as 10^−4 mol. l^−1.

`CC(C)=CCNc1ncnc2c1ncn2CCCl` [Compound 4, 6-[(3-methylbut-2-en-1-yl)amino]-9-(2-chloroethyl)purine]: in test [1], the “activity (%) [10^−5 mol. l^−1 iP = 100%]” value is given as 112 (±7) % and the “effect on callus growth” value is “still kept their stimulatory effect”. In test [2], the “activity (%) [10^−5 mol. l^−1 iP = 100%]” value is 128 (±11) % and the “concentration with highest activity” value is on record as 10^−4 mol. l^−1.

Take `COc1cccc(CNc2ncnc3c2ncn3CCCl)c1` [Compound 38]: in test [1], the “activity (%) [10^−6 mol. l^−1 Kin = 100%]” value is 106 (±5) % and the “concentration with highest activity” value is on record as 10^−5 mol. l^−1. In test [3], the “concentration with highest activity” value was 10^−4 mol. l^−1 and the “activity (%) [10^−4 mol. l^−1 Kin = 100%]” value was 116 (±7) %.

As to `Oc1cccc(CNc2ncnc3c2ncn3CCCl)c1` [Compound 47], in test [1], the “activity (%) [10^−6 mol. l^−1 Kin = 100%]” value is reported as 111 (±2) % and the “concentration with highest activity” value is on record as 10^−5 mol. l^−1. Further, in test [3], the “concentration with highest activity” value is recorded as 10^−4 mol. l^−1 and the “activity (%) [10^−4 mol. l^−1 Kin = 100%]” value is 111 (±9) %.

As to `C/C(=C\C(C)Nc1ncnc2c1ncn2CCCl)CO` (centres unmarked) [Compound 136, 6-(E)-(4-hydroxy-1,3-dimethylbut-2-en-1-ylamino)-9-(2-chloroethyl)purine], the “activity (%) [10^−6 mol. l^−1 Kin = 100%]” value in test [1] was 115 (±7) %. Besides, in test [3], the “concentration with highest activity” value was 10^−4 mol. l^−1 and the “activity (%) [10^−4 mol. l^−1 Kin = 100%]” value is on record as 114 (±4) %.
